# Patent US10639345B2, “Compositions for preserving photoreceptor cells, retinal pigment epithelial cells, or visual function” (Massachusetts Eye and Ear Infirmary, priority 2010, dated 2020)
# Where a SMILES comes first, the peptide text is derived from it. The star is where a group is joined. Cbz = O=C(OCc1ccccc1)*; CH2F = FC*
# Legend:
# photoreceptors [1] = experiment: Poly I:C-induced dry AMD model, TUNEL-positive cells in ONL; type: in vivo, mice; conditions: compared with vehicle
# Description: In this example, the mechanism of photoreceptor cell death in dry AMD was investigated using a polyinosinic:polycytidylic acid (Poly I:C)-induced dry AMD model (Yang et al. (2009) NEJM 359(14):1456-63). Poly I:C is a synthetic double-stranded RNA (dsRNA) analog that activates toll-like receptor 3 (TLR3) signaling (FIG. 20A). Furthermore, dsRNA are known to exist in the drusen of human AMD patients. As depicted in FIG. 20A, activation of the TLR3 signaling results in activation of RIP-1 kinase pathway. […] In the experiments described herein, 2-3 μl of Poly I:C (1 mg/ml) was injected into the subretinal space of the eye (e.g., approximately 2-3 μg of Poly I:C was administered to the eye) to induce AMD.
# The thickness of the ONL was determined by the National Institutes of Health ImageJ software. […] Specifically, the number of TUNEL-positive cells in the RIP-3−/− mice treated with poly I:C was at least three fold less than control mice consistent with RIP-3 playing a role in mediating programmed necrosis in AMD (FIG. 22B).
# To determine the effect of Nec-1 and a pan-caspase inhibitor in the treatment of AMD, TUNEL assay was performed to assess photoreceptor cell death in the poly I:C induced AMD model. […] The thickness of ONL was also measured.
# photoreceptors [2] = experiment: TEM quantification of photoreceptor death after retinal detachment in RIP-3−/− mice; type: in vivo; conditions: day three after retinal detachment
# Procedure: TEM was performed as previously described (Hisatomi T et al. (2008). J. CLIN. INVEST. 118:2025-2038). […] Over 200 photoreceptors each eye were photographed and subjected to quantification of cell death modes in a masked fashion. Photoreceptors showing cellular shrinkage and nuclear condensation were defined as apoptotic cells, while photoreceptors associated with cellular and organelle swelling and discontinuities in nuclear and plasma membrane were defined as necrotic cells. The presence of electron-dense granular materials were reported to occur subsequent to both apoptotic and necrotic cell death and cells with these findings were labeled simply as end-stage cell death/unclassified (Hisatomi T et al. (2003) AM. J. PATHOL. 162:1869-1879; Erickson P A et al. (1983) INVEST. OPHTHALMOL. VIS. SCI. 24:927-942).
# The morphology of the RIP-3−/− retina after retinal detachment was also assessed by TEM. […] RIP-3 deficiency inhibits the switch to necrotic cell death by Z-VAD treatment and prevents photoreceptor death after retinal detachment. Scale bar, 5 μm.
# RIP-1 = biological target: T1, RIP-1 (Rattus norvegicus, UniProt D3ZYL0); experiment: RIP-1 phosphorylation after retinal detachment (RIP-1 immunoprecipitation, anti-phosphoserine Western blot); type: in vivo; conditions: two days after retinal detachment; subretinal Z-VAD 300 μM and/or Nec-1 400 μM at detachment
# T1 construct: RIP-1 was immunoprecipitated from lysates of untreated retina and of retina treated with either vehicle, Nec-1, Z-VAD, or Nec-1+Z-VAD; from tissue; host or cells: retina (retinal lysates) of animals with experimental retinal detachment
# T1 sequence (D3ZYL0 1-658): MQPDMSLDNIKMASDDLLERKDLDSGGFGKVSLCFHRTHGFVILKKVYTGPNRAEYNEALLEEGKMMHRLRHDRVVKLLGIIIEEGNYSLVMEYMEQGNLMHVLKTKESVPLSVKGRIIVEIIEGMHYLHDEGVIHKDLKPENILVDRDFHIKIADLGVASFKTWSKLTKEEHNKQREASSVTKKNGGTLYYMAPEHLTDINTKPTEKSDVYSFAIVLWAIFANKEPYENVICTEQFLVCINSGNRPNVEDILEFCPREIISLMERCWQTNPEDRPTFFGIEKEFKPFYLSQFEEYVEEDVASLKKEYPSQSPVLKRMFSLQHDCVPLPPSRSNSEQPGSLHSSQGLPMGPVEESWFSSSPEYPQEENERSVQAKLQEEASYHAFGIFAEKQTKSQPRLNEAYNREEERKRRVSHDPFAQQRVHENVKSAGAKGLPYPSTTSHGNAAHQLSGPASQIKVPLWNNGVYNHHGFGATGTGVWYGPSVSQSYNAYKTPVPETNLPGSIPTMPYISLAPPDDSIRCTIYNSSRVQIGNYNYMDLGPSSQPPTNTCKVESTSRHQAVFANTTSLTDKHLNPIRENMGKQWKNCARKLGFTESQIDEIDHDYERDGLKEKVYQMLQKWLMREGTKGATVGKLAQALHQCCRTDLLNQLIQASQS
# Procedure: Equal amount of retinal lysates (1 mg) were incubated with 1 μg anti-RIP-1 antibody (BD Biosciences) and 20 μl of Protein A/G Agarose beads (Thermo Scientific, Rockford, Ill.) at 4° C. overnight. Beads were washed 5 times with lysis buffer and TBS, and the immunopellets were then subjected to Western blotting.
# RIP-1 is phosphorylated at several serine residues in its kinase domain during programmed necrosis and Nec-1 inhibits this phosphorylation (Degterev (2008) supra; Cho Y et al. (2009) Cell 137:1100-1111). To investigate the role of RIP-1 kinase in retinal detachment-induced photoreceptor death, the phosphorylation status of RIP-1 was first assessed by immunoprecipitating RIP-1 from the retina (FIG. 3A) and then blotting with an anti-phosphoserine antibody. RIP-1 was immunoprecipitated from retinal lysates. One mg of retinal lysates were incubated with anti-RIP-1 antibody and Protein A/G agarose beads. Extracts before (Pre) and after (Post) immunoprecipitation and the immunopellets (IP) were run on a 4-12% SDS-PAGE and blotted with anti-RIP-1 antibody. […]
# To determine the effect of Nec-1 and a pan-caspase inhibitor on the phosphorylation of RIP-1, Z-VAD (300 μM) and/or a Nec-1 compound of Formula I-C (400 μM) were injected subretinally in the animal at the time of retinal detachment induction. […] Phosphorylation of RIP-1 was then assessed by Western blot analysis. […]
# photoreceptors [3] = experiment: In vivo propidium iodide staining of photoreceptors after retinal detachment, wild-type retina; set-up: species or system mouse; conditions: three days after retinal detachment
# Procedure: In vivo propidium iodide (PI) staining was performed by injecting 5 μl of PI (50 μg/ml) into the subretinal space three days after retinal detachment. After two hours, the eyes were enucleated and 10 μm thick cryosections were cut, air-dried, and fixed in 100% ethanol. DAPI was used to counterstain the nuclei. The center of the detached retina was photographed by fluorescence microscope, and the number of PI-positive cells in ONL was analyzed by ImageJ software.
# (*, P<0.05; **, P<0.01; scale bar, 100 μm.)
compound,measurement,setting,value
"COC(=O)CC(NC(=O)C(C)NC(=O)C(NC(=O)OCc1ccccc1)C(C)C)C(=O)CF (stereo not drawn) [Z-VAD, Benzyloxycarbonyl-Val-Ala-Asp(OMe)-fluoromethylketone] (Cbz-Val-Ala-Asp(OMe)-CH2F; configuration not given here)",number of TUNEL-positive cells in ONL,photoreceptors [1],slight effect
same,% apoptotic cells (TEM),photoreceptors [2],4.8±1.3%
same,% necrotic cells (TEM),photoreceptors [2],6.4±1.3%
same,% unclassified (TEM),photoreceptors [2],0.9±0.4%
same,RIP-1 phosphorylation,RIP-1,elevated
same,number of PI-positive photoreceptors in the ONL,photoreceptors [3],817.4±104.2 cells/mm^2
